Data: patent publication US20090143279A1 (priority 2007, published 2009)
Like-named read-outs stand apart in the source and are kept apart here.

Columns and labels:
[1] = test system: mitochondrial membrane potential; assay type: cell-based, mouse
mtOXPHOS transcripts = assay type: cell-based, mouse
[2] = test system: cellular dehydrogenase activity
nuOXPHOS transcripts = assay type: cell-based, mouse
cytochrome c = assay type: cell-based, mouse
reactive oxygen species = assay type: cell-based, mouse
OXPHOS gene expression = assay type: cell-based, mouse
[3] = normalized composite Z-score vs mock-treated (DMSO) wells, Conc 20 μM
[4] = 20 μM, composite Z-score vs DMSO
[5] = composite Z-score vs DMSO, Conc 20 μM
[6] = Table 4, C2C12 myotubes, 48 h, composite Z-score
[7] = 7.92 μM, composite Z-score vs DMSO
[8] = composite Z-score vs mock-treated (DMSO) wells, Conc 20 μM
[9] = composite Z-score vs DMSO wells, Conc 20 μM
[10] = 24.06 μM, composite Z-score vs DMSO
[11] = composite Z-score vs mock-treated (DMSO) wells, concentration of each compound in μM

cytochrome c, sequence (P62897 whole entry): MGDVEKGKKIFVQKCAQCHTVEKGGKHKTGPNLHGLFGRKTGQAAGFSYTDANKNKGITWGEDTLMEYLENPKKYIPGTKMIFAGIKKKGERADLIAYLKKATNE

CC1CC(O)C2OC1CC1C(CC1(C)C)C2C (centres unmarked) [3,7-epoxycaryophyllan-6-ol]
ΔΨm [1, 3]: −0.461
mitoOX (mtOXPHOS transcripts; [3]): −0.407
MTT [2, 3]: −1.302
nucOX (nuOXPHOS transcripts; [3]): −1.203
cyt c (cytochrome c; [3]): 0.604
ROS (reactive oxygen species; [3]): 0.255
Viability (C2C12 myotubes; [3]): −0.644
GE-HTS (OXPHOS gene expression; [3]): −1.018

CN1Cc2c(N)cccc2C(c2ccccc2)C1 (centres unmarked) [nomifensin]
ΔΨm [1]: −0.329
ΔΨm [1, 4]: −0.059
mitoOX (mtOXPHOS transcripts): 0.181
mitoOX (mtOXPHOS transcripts; [4]): −0.026
MTT [2]: −0.534
MTT [2, 4]: −0.885
nucOX (nuOXPHOS transcripts): −0.571
nucOX (nuOXPHOS transcripts; [4]): −0.169
cyt c (cytochrome c): −1.298
cyt c (cytochrome c; [4]): −1.233
ROS (reactive oxygen species): 3.133
ROS (reactive oxygen species; [4]): 3.112
Viability (C2C12 myotubes): 0.121
Viability (C2C12 myotubes; [4]): 0.525
GE-HTS (OXPHOS gene expression): −0.331
GE-HTS (OXPHOS gene expression; [4]): −0.131

Cn1c(=O)[nH]c(=O)c2[nH]cnc21 [3-methylxanthine]
ΔΨm [1, 5]: −0.149
mitoOX (mtOXPHOS transcripts; [5]): −0.856
MTT [2, 5]: −0.859
nucOX (nuOXPHOS transcripts; [5]): −1.286
cyt c (cytochrome c; [5]): 0.692
ROS (reactive oxygen species; [5]): 0.472
Viability (C2C12 myotubes; [5]): 0.036
GE-HTS (OXPHOS gene expression; [5]): −1.241

12a-hydroxy-5-deoxydehydromunduserone [reference compound]
ΔΨm ([1]; Table 4, C2C12 myotubes, 48 h, JC-1, composite Z-score): −0.179
ΔΨm [1, 3]: −0.179
mitoOX (mtOXPHOS transcripts; [3]): 0.239
MTT [2, 6]: −1.976
MTT [2, 3]: −1.976
nucOX (nuOXPHOS transcripts; [3]): 0.193
cyt c (cytochrome c; [3]): −0.179
ROS (reactive oxygen species; [6]): 0.823
ROS (reactive oxygen species; [3]): 0.823
Viability (C2C12 myotubes; [6]): −0.940
Viability (C2C12 myotubes; [3]): −0.940
GE-HTS (OXPHOS gene expression; [3]): 0.211

[H]/N=C(\N/C(=N/[H])NCCCCCCNC(=N)NC(=N)Nc1ccc(Cl)cc1)Nc1ccc(Cl)cc1 [chlorhexidine]
ΔΨm [1, 7]: 0.348
ΔΨm [1, 4]: 0.412
mitoOX (mtOXPHOS transcripts; [7]): 0.140
mitoOX (mtOXPHOS transcripts; [4]): −0.141
MTT [2, 7]: −4.138
MTT [2, 4]: −2.340
nucOX (nuOXPHOS transcripts; [7]): 0.990
nucOX (nuOXPHOS transcripts; [4]): −0.592
cyt c (cytochrome c; [7]): 0.090
cyt c (cytochrome c; [4]): −1.683
ROS (reactive oxygen species; [7]): −2.490
ROS (reactive oxygen species; [4]): 1.660
Viability (C2C12 myotubes; [7]): −1.859
Viability (C2C12 myotubes; [4]): −0.976
GE-HTS (OXPHOS gene expression; [7]): 0.775
GE-HTS (OXPHOS gene expression; [4]): −0.455

CC(=O)O[C@H]1CC[C@]2(C)[C@H]3CC[C@@]4(C)[C@H](c5ccoc5)OC(=O)[C@H]5O[C@]54[C@]3(C)[C@H](OC(C)=O)C[C@H]2C1(C)C [3beta-acetoxydeoxodihydrogedunin]
ΔΨm [1, 8]: 0.254
mitoOX (mtOXPHOS transcripts; [8]): −0.694
MTT [2, 8]: −0.528
nucOX (nuOXPHOS transcripts; [8]): −1.055
cyt c (cytochrome c; [8]): 0.759
ROS (reactive oxygen species; [8]): 0.055
Viability (C2C12 myotubes; [8]): 0.311
GE-HTS (OXPHOS gene expression; [8]): −1.016

C[C@H](N)[C@H](O)c1cccc(O)c1 [metaraminol]
ΔΨm [1, 5]: −0.772
mitoOX (mtOXPHOS transcripts; [5]): −0.745
MTT [2, 5]: −1.268
nucOX (nuOXPHOS transcripts; [5]): −0.456
cyt c (cytochrome c; [5]): 0.327
ROS (reactive oxygen species; [5]): 0.313
Viability (C2C12 myotubes; [5]): 0.107
GE-HTS (OXPHOS gene expression; [5]): −0.589

Cc1cc(=O)c2c(O)cc(O)c(C)c2o1 [isoeugenitol]
ΔΨm [1, 8]: 0.369
mitoOX (mtOXPHOS transcripts; [8]): −0.680
MTT [2, 8]: −0.500
nucOX (nuOXPHOS transcripts; [8]): −0.647
cyt c (cytochrome c; [8]): 0.662
ROS (reactive oxygen species; [8]): 1.129
Viability (C2C12 myotubes; [8]): 0.377
GE-HTS (OXPHOS gene expression; [8]): −0.717

COc1ccc(-c2coc3c(O)c(OC)ccc3c2=O)cc1 [retusin 7-methyl ether]
ΔΨm [1, 5]: −0.603
mitoOX (mtOXPHOS transcripts; [5]): 0.631
MTT [2, 5]: −0.627
nucOX (nuOXPHOS transcripts; [5]): 0.765
cyt c (cytochrome c; [5]): 0.412
ROS (reactive oxygen species; [5]): 0.088
Viability (C2C12 myotubes; [5]): −0.245
GE-HTS (OXPHOS gene expression; [5]): 0.788

CCC(C)C(=O)O[C@@H]1C[C@@]2(C)[C@H](c3ccoc3)OC(=O)CC23OC2(C)OC34[C@H](OC(=O)C(C)C)[C@@]3(O)[C@@H](OC(=O)C5(C)OC5C)[C@@]5(C)C[C@]3(O)[C@@](C)([C@H]5CC(=O)OC)C14O2 (some centres unmarked) [entandrophragmin]
ΔΨm [1, 8]: 0.113
mitoOX (mtOXPHOS transcripts; [8]): 1.061
MTT [2, 8]: −0.737
nucOX (nuOXPHOS transcripts; [8]): 0.149
cyt c (cytochrome c; [8]): −0.703
ROS (reactive oxygen species; [8]): 1.351
Viability (C2C12 myotubes; [8]): 0.672
GE-HTS (OXPHOS gene expression; [8]): 0.467

CC1=CC(=O)CC(C)(C)[C@@]1(O)/C=C/C(C)=C\C(=O)O [abscisic acid]
ΔΨm [1, 3]: −0.565
mitoOX (mtOXPHOS transcripts; [3]): 0.299
MTT [2, 3]: −1.053
nucOX (nuOXPHOS transcripts; [3]): 0.509
cyt c (cytochrome c; [3]): 0.179
ROS (reactive oxygen species; [3]): −0.476
Viability (C2C12 myotubes; [3]): 0.309
GE-HTS (OXPHOS gene expression; [3]): 0.469

CCNC(=O)CC[C@H](N)C(=O)O [theanine]
ΔΨm [1, 5]: −0.557
mitoOX (mtOXPHOS transcripts; [5]): −0.778
MTT [2, 5]: −0.851
nucOX (nuOXPHOS transcripts; [5]): −1.209
cyt c (cytochrome c; [5]): 0.244
ROS (reactive oxygen species; [5]): 0.615
Viability (C2C12 myotubes; [5]): −0.613
GE-HTS (OXPHOS gene expression; [5]): −1.153

COc1cc(-c2coc3cc(OCc4ccccc4)c(OC)c(O)c3c2=O)cc(OCc2ccccc2)c1OC [irigenin, dibenzyl ether]
ΔΨm [1, 5]: 0.178
mitoOX (mtOXPHOS transcripts; [5]): −0.602
MTT [2, 5]: −0.793
nucOX (nuOXPHOS transcripts; [5]): −0.163
cyt c (cytochrome c; [5]): 0.012
ROS (reactive oxygen species; [5]): 0.088
Viability (C2C12 myotubes; [5]): −1.724
GE-HTS (OXPHOS gene expression; [5]): −0.325

CCCCOc1ccc(C(=O)CCN2CCCCC2)cc1 [dyclonine]
ΔΨm [1, 9]: −1.085
mitoOX (mtOXPHOS transcripts; [9]): −1.117
MTT [2, 9]: −0.882
nucOX (nuOXPHOS transcripts; [9]): −0.377
cyt c (cytochrome c): 0.597
cyt c (cytochrome c; [9]): 1.243
ROS (reactive oxygen species; [9]): 0.379
Viability (C2C12 myotubes; [9]): −0.640
GE-HTS (OXPHOS gene expression; [9]): −0.690

COC1CC(C)C2OC2CC(C)C2CC(C)(C)C12 (centres unmarked)
ΔΨm [1, 3]: −0.699
mitoOX (mtOXPHOS transcripts; [3]): −0.439
MTT [2, 3]: −0.794
nucOX (nuOXPHOS transcripts; [3]): −0.466
cyt c (cytochrome c; [3]): 0.933
ROS (reactive oxygen species; [3]): 0.120
Viability (C2C12 myotubes; [3]): −1.011
GE-HTS (OXPHOS gene expression; [3]): −0.497

NCCc1ccc(S(=O)(=O)F)cc1 [4-aminoethylbenzenesulfonyl fluoride]
ΔΨm [1, 5]: −0.356
mitoOX (mtOXPHOS transcripts; [5]): 0.018
MTT [2, 5]: −1.406
nucOX (nuOXPHOS transcripts; [5]): −0.045
cyt c (cytochrome c; [5]): −0.485
ROS (reactive oxygen species; [5]): 1.081
Viability (C2C12 myotubes; [5]): −0.304
GE-HTS (OXPHOS gene expression; [5]): −0.016

CC[N+](C)(C)c1cccc(O)c1 [edrophonium]
ΔΨm [1, 4]: 0.391
ΔΨm [1, 10]: −0.161
mitoOX (mtOXPHOS transcripts; [4]): −0.183
mitoOX (mtOXPHOS transcripts; [10]): −1.083
MTT [2, 4]: −0.015
MTT [2, 10]: 0.901
nucOX (nuOXPHOS transcripts; [4]): −1.001
nucOX (nuOXPHOS transcripts; [10]): −0.611
cyt c (cytochrome c; [4]): 1.045
cyt c (cytochrome c; [10]): 0.177
ROS (reactive oxygen species; [4]): 1.006
ROS (reactive oxygen species; [10]): 0.343
Viability (C2C12 myotubes; [4]): −0.291
Viability (C2C12 myotubes; [10]): 0.250
GE-HTS (OXPHOS gene expression; [4]): −0.806
GE-HTS (OXPHOS gene expression; [10]): −0.803

avocatin A
ΔΨm [1, 11]: −0.057
mitoOX (mtOXPHOS transcripts; [11]): −1.140
MTT [2, 11]: −0.249
nucOX (nuOXPHOS transcripts; [11]): −1.066
cyt c (cytochrome c; [11]): 0.849
ROS (reactive oxygen species; [11]): 0.404
Viability (C2C12 myotubes; [11]): 0.133
GE-HTS (OXPHOS gene expression; [11]): −1.145
